# ChEMBL document CHEMBL3352521, “Two Potent OXE-R Antagonists: Assignment of Stereochemistry” (ACS Med Chem Lett, 2014)
# pIC50: −log10 of the molar value.
# Biological target: Oxoeicosanoid receptor 1 (Homo sapiens, UniProt Q8TDS5)
# Assay: Antagonist activity at OXE receptor in human neutrophils assessed as inhibition of calcium mobilization by fluorescence assay
# Assay type: functional
# Chain of Oxoeicosanoid receptor 1 (Q8TDS5 whole entry): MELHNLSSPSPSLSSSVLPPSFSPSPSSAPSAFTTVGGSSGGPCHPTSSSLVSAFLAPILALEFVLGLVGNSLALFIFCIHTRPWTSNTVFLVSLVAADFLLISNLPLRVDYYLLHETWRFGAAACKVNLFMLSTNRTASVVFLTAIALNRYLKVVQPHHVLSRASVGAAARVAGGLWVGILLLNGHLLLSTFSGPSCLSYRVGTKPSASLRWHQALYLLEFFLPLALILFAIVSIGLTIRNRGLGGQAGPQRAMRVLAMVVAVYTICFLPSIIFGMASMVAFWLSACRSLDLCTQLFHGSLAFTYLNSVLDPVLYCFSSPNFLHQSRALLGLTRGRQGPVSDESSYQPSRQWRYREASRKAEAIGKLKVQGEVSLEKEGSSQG
row,pIC50,SMILES
1,8.57,CCCCCCc1c(C(=O)C[C@@H](C)CC(=O)O)c2cc(Cl)ccc2n1C
2,8.22,CCCCCCc1c(C(=O)C[C@H](C)CC(=O)O)c2cc(Cl)ccc2n1C
